From ChEMBL document CHEMBL2202983, “Structure-anti-leukemic activity relationship study of ortho-dihydroxycoumarins in U-937 cells: key role of the δ-lactone ring in determining differentiation-inducing potency and selective pro-apoptotic action” (Bioorg Med Chem, 2012)
Active and inactive are the calls of the source. The rule behind the calls is not given here.

Tests used:
U-937 [1] = experiment: Induction of cell differentiation in human U937 cells assessed as increase of CD11b and CD14 expression at 500 uM after 72 hrs by FACS flow cytometer analysis; type: functional, cell-based
U-937 [2] = experiment: Cytotoxicity against human U937 cells after 48 hrs by trypan blue assay; type: functional; details: U-937, 48 h
U-937 [3] = experiment: Induction of apoptosis in human U937 cells assessed as activation of caspase-3 at 500 uM after 24 hrs by colorimetric assay; type: functional, cell-based
U-937 [4] = experiment: Antiproliferative activity against human U937 cells assessed as incorporation of [3H]-methyl-thymidine after 12 hrs by scintillation counting; type: functional, cell-based
[5] = Pro-oxidant activity in 0.1 M potassium phosphate buffer at pH 7.4 assessed as increase of oxidation potential by cyclic voltammetry analysis; type: physicochemical
U-937 [6] = experiment: Induction of apoptosis in human U937 cells assessed as phosphatidylserine expression in plasma membrane at 500 uM after 24 hrs by Annexin V-FITC double staining; type: functional, cell-based
PBMC = experiment: Cytotoxicity against human PBMC at 500 uM after 48 hrs by trypan blue assay; type: cell-based
U-937 [7] = experiment: Inhibition of clonogenic activity in human U937 cells assessed as reduction of colony formation in soft agar at 100 to 250 uM after 24 hrs using crystal violet staining; type: functional, cell-based
U-937 [8] = experiment: Pro-oxidant activity in human U937 cells assessed as DCF-DA oxidation at 10 to 250 uM after 48 hrs by fluorescence assay; type: functional, cell-based
U-937 [9] = experiment: Induction of cell differentiation in human U937 cells assessed as increase of CD88 expression at 500 uM after 72 hrs by FACS flow cytometer analysis; type: functional, cell-based
Jurkat = experiment: Induction of apoptosis in human Jurkat cells assessed as activation of caspase-3-mediated PARP cleavage at 500 uM after 24 hrs by colorimetric assay; type: functional, cell-based
U-937 [10] = experiment: Induction of cell differentiation in human U937 cells assessed as increase of rhC5a-induced response at 500 uM after 72 hrs by FACS flow cytometer analysis; type: functional, cell-based

| Compound | Activity (U-937 [1]) | CC50 (U-937 [2]) [µM] | Activity (U-937 [3]) | IC50 (U-937 [4]) [µM] | Activity [5] | Activity (U-937 [6]) | Activity (PBMC) | colony formation inhibition (active/not active) (U-937 [7]) | Activity (U-937 [8]) | Activity (U-937 [9]) | Activity (Jurkat) | Activity (U-937 [10]) |
| --- | --- | --- | --- | --- | --- | --- | --- | --- | --- | --- | --- | --- |
| Cc1cc(=O)oc2ccc(O)cc12 | Active | > 2000 | inactive | – | – | – | – | – | – | – | – | – |
| CC(=O)c1c(O)ccc2c(C)cc(=O)oc12 | Active | > 1000 | inactive | 454 | – | – | – | – | – | – | – | – |
| O=c1cccco1 | Active | > 2000 | – | > 2000 | Not Active | – | – | – | – | – | – | – |
| COc1ccc2c(C)cc(=O)oc2c1OC | inactive | > 2000 | inactive | 736 | Not Active | Active | Non-toxic | inactive | inactive | inactive | inactive | inactive |
| Cc1cc(=O)oc2cc(O)c(Cl)cc12 | inactive | 734 | inactive | 771 | – | – | – | – | – | – | – | – |
| COc1cc(C)oc(=O)c1 | Active | > 2000 | – | > 2000 | Not Active | – | – | – | – | – | – | – |
| COc1ccc(/C=C/C(=O)O)cc1OC | – | > 2000 | – | > 2000 | Active | – | – | – | – | – | – | – |
| Cc1cc(C)oc(=O)c1 | Active | > 2000 | – | > 2000 | Not Active | – | – | – | – | – | – | – |
| COc1ccc(CCC(=O)O)cc1OC | inactive | > 2000 | – | > 2000 | Active | – | Non-toxic | – | inactive | inactive | inactive | inactive |
| Cc1cc(O)cc(=O)o1 | Active | > 2000 | – | > 2000 | Not Active | – | – | – | – | – | – | – |
| Cc1cc(O)nc2cc(O)ccc12 | Active | > 1000 | inactive | 259 | – | – | – | – | – | – | – | – |
